Laboratory results from ChEMBL document CHEMBL6071207, “In Vivo-Active Soluble Epoxide Hydrolase-Targeting PROTACs with Improved Potency and Stability” (ACS Med Chem Lett, 2024).
Active and inactive are the calls of the source. No cut-off for these calls is given here.

Assays:
[1] = Metabolic stability in mouse liver microsome assessed as half life incubated for 5 to 45 mins in presence of NADPH by UPLC-MS/MS analysis; assay type: ADME; conditions: liver microsomes, time 5-45 min
[2] = tested on: HEK293T; experiment: Inhibition of IRE1alpha phosphorylation in HEK293T cells at 100 nM pretreated with compound for 12 hrs followed by thapsigargin addition and measured after 24 hrs by immunoblotting analysis; assay type: cell-based; conditions: Homo sapiens, time 36.0 hrs
[3] = Metabolic stability in mouse liver microsome assessed as intrinsic clearance incubated for 5 to 45 mins in presence of NADPH by UPLC-MS/MS analysis; assay type: ADME; conditions: liver microsomes, time 5-45 min, read-out: CLH
[4] = Metabolic stability in mouse liver microsome assessed as parent compound remaining incubated for 5 to 45 mins in absence of NADPH by UPLC-MS/MS analysis; assay type: ADME; conditions: microsomes, time 5-45 min
[5] = target: T1, Eukaryotic translation initiation factor 2-alpha kinase 3 (Homo sapiens) (UniProt Q9NZJ5); experiment: Inhibition of PERK phosphorylation in HEK293T cells at 100 nM pretreated with compound for 12 hrs followed by thapsigargin addition and measured after 24 hrs by immunoblotting analysis; assay type: cell-based; conditions: time 36.0 hrs
T1 sequence (whole entry): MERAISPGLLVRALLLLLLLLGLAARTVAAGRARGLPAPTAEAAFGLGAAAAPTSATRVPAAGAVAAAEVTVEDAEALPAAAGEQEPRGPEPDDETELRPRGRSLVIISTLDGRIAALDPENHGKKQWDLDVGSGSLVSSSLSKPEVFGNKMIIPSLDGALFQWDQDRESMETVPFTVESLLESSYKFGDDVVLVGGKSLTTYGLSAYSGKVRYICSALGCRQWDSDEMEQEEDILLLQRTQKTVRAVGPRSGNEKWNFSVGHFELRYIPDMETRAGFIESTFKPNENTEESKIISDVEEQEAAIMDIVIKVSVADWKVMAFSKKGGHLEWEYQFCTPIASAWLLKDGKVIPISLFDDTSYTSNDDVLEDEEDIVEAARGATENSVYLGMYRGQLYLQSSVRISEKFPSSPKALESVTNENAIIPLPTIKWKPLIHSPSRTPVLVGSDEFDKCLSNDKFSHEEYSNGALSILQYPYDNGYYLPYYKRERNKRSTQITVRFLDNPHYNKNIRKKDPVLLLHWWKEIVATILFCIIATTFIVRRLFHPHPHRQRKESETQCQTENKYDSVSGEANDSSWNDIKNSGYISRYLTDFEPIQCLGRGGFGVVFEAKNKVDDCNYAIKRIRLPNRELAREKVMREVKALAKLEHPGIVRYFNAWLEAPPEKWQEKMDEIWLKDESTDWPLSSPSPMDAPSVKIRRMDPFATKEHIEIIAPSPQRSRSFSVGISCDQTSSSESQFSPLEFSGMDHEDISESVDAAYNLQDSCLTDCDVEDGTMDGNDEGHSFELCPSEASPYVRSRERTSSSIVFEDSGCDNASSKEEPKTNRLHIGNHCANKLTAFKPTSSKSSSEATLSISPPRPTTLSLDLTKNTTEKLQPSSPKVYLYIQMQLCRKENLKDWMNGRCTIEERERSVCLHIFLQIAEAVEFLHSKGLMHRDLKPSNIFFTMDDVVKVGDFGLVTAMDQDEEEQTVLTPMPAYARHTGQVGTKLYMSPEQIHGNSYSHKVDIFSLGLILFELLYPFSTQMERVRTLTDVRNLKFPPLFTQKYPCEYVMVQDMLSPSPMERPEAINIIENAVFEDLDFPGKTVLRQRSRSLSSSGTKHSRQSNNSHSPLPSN

[6] = Chemical stability of compound in cell culture medium assessed as half life measured for 24 hrs by LC-MS analysis; assay type: physicochemical
[7] = Chemical stability of compound in cell culture medium assessed as degradation measured after 24 hrs by LC-MS analysis; assay type: physicochemical; conditions: read-out: Drug degradation
[8] = target: Eukaryotic translation initiation factor 2 subunit 1 (Homo sapiens) (UniProt P05198); experiment: Inhibition of eIF2alpha phosphorylation in HEK293T cells at 100 nM pretreated with compound for 12 hrs followed by thapsigargin addition and measured after 24 hrs by immunoblotting analysis; assay type: cell-based; conditions: time 36.0 hrs
Eukaryotic translation initiation factor 2 subunit 1 (Homo sapiens), sequence (P05198 whole entry): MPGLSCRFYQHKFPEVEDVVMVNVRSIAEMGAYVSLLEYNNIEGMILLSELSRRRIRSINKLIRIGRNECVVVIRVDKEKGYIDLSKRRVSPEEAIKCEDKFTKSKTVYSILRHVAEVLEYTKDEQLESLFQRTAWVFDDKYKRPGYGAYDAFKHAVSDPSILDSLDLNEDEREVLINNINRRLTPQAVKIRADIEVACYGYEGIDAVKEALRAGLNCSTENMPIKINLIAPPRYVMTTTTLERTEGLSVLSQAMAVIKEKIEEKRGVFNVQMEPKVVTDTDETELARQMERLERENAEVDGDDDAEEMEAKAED

[9] = target: Protein cereblon/Bifunctional epoxide hydrolase 2 (Homo sapiens, UniProt P34913+Q96SW2); experiment: PROTAC activity at sEH/CRBN in human HepG2 cells assessed as induction of sEH degradation measured for 24 hrs by immunoblot analysis; assay type: cell-based
Protein cereblon/Bifunctional epoxide hydrolase 2, sequence (P34913 whole entry): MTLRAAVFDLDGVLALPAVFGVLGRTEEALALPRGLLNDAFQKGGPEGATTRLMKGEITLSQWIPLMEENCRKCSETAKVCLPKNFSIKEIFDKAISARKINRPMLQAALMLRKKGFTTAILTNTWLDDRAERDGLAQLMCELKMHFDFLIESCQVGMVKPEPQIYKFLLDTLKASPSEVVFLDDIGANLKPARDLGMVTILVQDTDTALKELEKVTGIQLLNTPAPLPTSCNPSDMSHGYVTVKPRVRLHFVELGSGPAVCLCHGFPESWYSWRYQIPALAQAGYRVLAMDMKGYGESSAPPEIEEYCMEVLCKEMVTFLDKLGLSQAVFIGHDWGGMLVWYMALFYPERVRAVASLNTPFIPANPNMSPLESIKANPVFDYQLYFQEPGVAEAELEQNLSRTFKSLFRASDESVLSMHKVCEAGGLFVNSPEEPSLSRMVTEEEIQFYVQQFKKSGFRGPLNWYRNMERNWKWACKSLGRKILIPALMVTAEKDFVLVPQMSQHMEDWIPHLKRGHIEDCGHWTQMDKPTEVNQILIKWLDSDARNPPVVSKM
Protein cereblon/Bifunctional epoxide hydrolase 2, sequence (Q96SW2 whole entry): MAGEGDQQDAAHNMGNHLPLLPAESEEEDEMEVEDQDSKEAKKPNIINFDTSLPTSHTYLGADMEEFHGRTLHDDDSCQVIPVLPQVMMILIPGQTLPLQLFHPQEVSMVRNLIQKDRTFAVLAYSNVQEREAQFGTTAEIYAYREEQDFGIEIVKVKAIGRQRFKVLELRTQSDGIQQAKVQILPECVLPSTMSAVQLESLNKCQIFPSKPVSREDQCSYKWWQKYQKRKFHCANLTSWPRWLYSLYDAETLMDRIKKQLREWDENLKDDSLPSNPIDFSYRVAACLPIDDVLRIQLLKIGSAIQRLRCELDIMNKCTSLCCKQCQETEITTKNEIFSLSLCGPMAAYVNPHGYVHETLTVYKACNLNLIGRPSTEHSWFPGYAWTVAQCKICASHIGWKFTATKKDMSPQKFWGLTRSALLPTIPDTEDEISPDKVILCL

[10] = target: T2, Bifunctional epoxide hydrolase 2 (Mus musculus, UniProt P34914); experiment: Inhibition of mouse recombinant sEH using fluorogenic substrate
T2 sequence (P34914 whole entry): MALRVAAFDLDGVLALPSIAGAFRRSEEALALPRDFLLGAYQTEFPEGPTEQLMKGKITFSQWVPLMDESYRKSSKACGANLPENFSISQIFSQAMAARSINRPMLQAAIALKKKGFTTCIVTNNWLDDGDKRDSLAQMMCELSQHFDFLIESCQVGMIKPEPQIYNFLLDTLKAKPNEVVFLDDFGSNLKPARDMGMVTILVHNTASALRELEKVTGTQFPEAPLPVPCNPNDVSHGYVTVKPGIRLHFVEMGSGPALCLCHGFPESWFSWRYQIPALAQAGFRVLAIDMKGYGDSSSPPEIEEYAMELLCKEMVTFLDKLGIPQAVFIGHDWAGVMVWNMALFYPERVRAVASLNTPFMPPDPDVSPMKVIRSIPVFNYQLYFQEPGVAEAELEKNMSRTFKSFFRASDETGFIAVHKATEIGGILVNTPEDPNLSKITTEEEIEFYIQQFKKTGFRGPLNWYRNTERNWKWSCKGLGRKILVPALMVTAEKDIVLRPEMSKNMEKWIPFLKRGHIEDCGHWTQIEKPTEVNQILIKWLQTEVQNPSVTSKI

[11] = tested on: HepG2; experiment: Cytotoxicity against human HepG2 cells assessed as cell viability at 1 uM incubated for 24 hrs by MTT assay; conditions: HepG2, 24 h, read-out: Activity
[12] = Chemical stability of compound in cell culture medium assessed as parent compound remaining measured for 24 hrs by LC-MS analysis; assay type: physicochemical; conditions: read-out: Stability
[13] = Tmax in male CD-1 mouse at 10 mg/kg, ip measured up to 24 hrs by LC-MS/MS analysis; assay type: ADME, organism-based; conditions: in vivo
[14] = AUC (0 to infinity) in male CD-1 mouse at 10 mg/kg, ip measured up to 24 hrs by LC-MS/MS analysis; assay type: ADME, organism-based; conditions: in vivo
[15] = Cmax in male CD-1 mouse at 10 mg/kg, ip measured up to 24 hrs by LC-MS/MS analysis; assay type: ADME, organism-based; conditions: in vivo
[16] = MRT (0 to infinity) in male CD-1 mouse at 10 mg/kg, ip measured up to 24 hrs by LC-MS/MS analysis; assay type: ADME, organism-based; conditions: in vivo
[17] = Half life in male CD-1 mouse at 10 mg/kg, ip measured up to 24 hrs by LC-MS/MS analysis; assay type: ADME, organism-based; conditions: in vivo

## O=C(COc1cccc2c1C(=O)N(C1CCC(=O)NC1=O)C2=O)NCCOCCOCCOCCOCCNC(=O)c1ccc(O[C@H]2CC[C@H](NC(=O)Nc3ccc(OC(F)(F)F)cc3)CC2)cc1 (some centres not stated)
[1]
  half-life: 35.4 s
[2]
  inhibition: inactive
[3]
  CLint scaled: 552 L/h/kg
[4]
  Stability: 90%
[5]
  inhibition: inactive
[6]
  half-life: 1.1 h
[7]
  degraded at 24 h: ~100%
[8]
  inhibition: inactive

## O=C(COc1cccc2c1C(=O)N(C1CCC(=O)NC1=O)C2=O)NCCOCCOCCOCCCNC(=O)c1ccc(O[C@H]2CC[C@H](NC(=O)Nc3ccc(OC(F)(F)F)cc3)CC2)cc1 (some centres not stated)
[7]
  degraded at 24 h: ~100%
[9]
  DC50: > 1000 nM

## Cc1ncsc1-c1ccc(CNC(=O)[C@@H]2C[C@@H](O)CN2C(=O)[C@@H](NC(=O)CCOCCOCCOCCOCCC(=O)N2CCC(NC(=O)Nc3ccc(OC(F)(F)F)cc3)CC2)C(C)(C)C)cc1
[10]
  IC50: 10 nM

## O=C1CCC(N2Cc3cc(N4CCN(C(=O)CCCCCCCCNC(=O)c5ccc(O[C@H]6CC[C@H](NC(=O)Nc7ccc(OC(F)(F)F)cc7)CC6)cc5)CC4)ccc3C2=O)C(=O)N1 (some centres not stated)
[10]
  IC50: 2.8 nM
[11]
  viability at 1 µM: 46%
[12]
  remaining at 24 h: 57%

## O=C1CCC(N2C(=O)c3ccc(N4CCN(CC5CCN(C(=O)CCCCCCCCC(=O)N6CCC(NC(=O)Nc7ccc(OC(F)(F)F)cc7)CC6)CC5)CC4)cc3C2=O)C(=O)N1 (configuration not stated)
[13]
  Tmax: 0.33 h
[10]
  IC50: 4.6 nM
[14]
  AUC(0-inf): 61000 ng·h/mL
[15]
  Cmax: 3000 ng/mL
[16]
  MRT inf: 4 h
[17]
  half-life: 5.8 h

## O=C1CCC(N2C(=O)c3cccc(NCCOCCOCCOCCOCCC(=O)N4CCC(NC(=O)Nc5ccc(OC(F)(F)F)cc5)CC4)c3C2=O)C(=O)N1 (configuration not stated)
[10]
  IC50: 4.6 nM

## O=C1CCC(N2C(=O)c3cc(F)c(N4CCN(CC5CCN(C(=O)CCCCCCCCNC(=O)c6ccc(O[C@H]7CC[C@H](NC(=O)Nc8ccc(OC(F)(F)F)cc8)CC7)cc6)CC5)CC4)cc3C2=O)C(=O)N1 (some centres not stated)
[10]
  IC50: 20 nM
